Patent publication US20230125667A1, “NOVEL TDZD ANALOGS AS AGENTS THAT DELAY, PREVENT, OR REVERSE AGE-ASSOCIATED DISEASES AND AS ANTI-CANCER AND ANTILEUKEMIC AGENTS” (United States Government as represented by the Department …, priority 2020, published 2023)
“Also recorded” adds a separate entry of the source.

Experiments:
tau hyperphosphorylation = experiment: Tau hyperphosphorylation in rat cortical cells; type: cell-based; settings: FIG. 23
Experimental: Microtubule assembly involves stable tau binding to other proteins in the complex, including tubulin. Hyperphosphorylated tau is readily sequestered into aggregates and generates intracellular neurofibrillary tangles (“tau tangles”). […] The top drugs were tested for impact on tau hyperphosphorylation in rat cortical cells (FIG. 23).
Primary cultures were established from cerebral cortex of E18 rats; under serum-free conditions (Neurobasal/B27) these cultures contain ˜85% neurons, with the remainder comprising astrocytes (˜12% and microglia ˜3%). At the […], triplicate cultures were exposed to the test compounds at the indicated concentrations; a separate triplicate was exposed to vehicle (0.5% DMSO final concentration). After 24 h, cultures were washed once with ice-cold PBS and then scraped in RIPA buffer containing inhibitors of proteases and phosphatases. Lysates were centrifuged at 14,000 g at 4° C. for 7 min. Supernatants were removed and stored at −80° C. after removal of small aliquots for determination of protein concentration by BCA. Samples equilibrated for total protein were analyzed by Wes™ capillary-gel immunodetection (ProteinSimple) using the AT8 clone of anti-phosphoTau (Invitrogen MN 1020) or total Tau (ABclonal A0002). Detected antigen was calculated by peak area (automated peak fit), and values are reported as AT8 normalized to total Tau.

C. elegans strain AM141 = experiment: Q40::YFP aggregates in C. elegans strain AM141; type: in vivo
Experimental: (§1) Several TDZD-conjugated drugs (putative GSK-3 inhibitors) were evaluated for their ability to reduce accumulation of protein aggregates, and for protection against aggregation-associated end-points in the following model systems: (i.) SH-SY5Y-APPSw, a neuroblastoma cell line expressing the Swedish mutation of Amyloid Precursor Protein (APPSw), and thus predisposed to form β-amyloid deposits; (ii.) C. elegans strain CL4176, a model of Alzheimer-like amyloidopathy that can be induced to express human Aβ1-42 in muscle, or may express it at a lower level without induction; (iii.) C. elegans strain AM141, a model of Huntington-like polyglutamine aggregation that constitutively expresses Q40::YFP (a tract of 40 glutamines fused in-frame to yellow fluorescent protein) in muscle cells and forms aggregates progressively with adult aging. The TDZD analog PNR-962 (a putative GSK-3 inhibitor) and other related compounds (not shown) were protective in all aggregation assays.
Fresh agar plates supporting bacterial lawns, which serve as food for C. elegans, were prepared at least 1 day ahead of use. C. elegans AM141 (forming Q40::YFP aggregates in muscle, progressively in early adulthood) were placed on these 100-mm plates. Day-4 adult worms were lysed with alkaline hypochlorite solution to obtain eggs from worms, a procedure that permits synchronization of worms in a cohort. Eggs were placed on plates spotted with different concentrations of TDZD analogues after allowing the compounds to be evenly distributed on the plates (˜1 hour after adding drugs to plates). Vehicle-only (DMSO) controls are included in each experiment, as a baseline for drug effects in experimental groups. Young-adult AM141 (day-3 adults) were transferred on alternate days onto fresh plates that contained the same doses of compounds, with fresh E. coli to prevent starvation of worms. Equal samples (n=25) were randomly picked from experimental groups and control group for microscopic imaging. Using an in-house plugin for ImageJ software (NIH), several images of AM141 were processed for aggregate count per worm. The fluorescence intensity of each aggregate (indicating the size/content of protein aggregates) was also measured. Each drug treatment was repeated multiple times to validate the results.

SH-SY5Y-APPSw cells = experiment: Thioflavin-T staining of amyloid-like aggregates in SH-SY5Y-APPSw cells; type: cell-based, human
Experimental: as §1
First, the effects of TDZD analogues were tested on the human neuroblastoma cell line SH-SY5Y-APPSw, a model of Alzheimer-like amyloid aggregation expressing the “Sw” mutant form of Amyloid Precursor Protein, APP. These drugs all produced significant reductions in amyloid-like aggregates, by 30-50% as quantified by thioflavin-T staining intensity (data for PNR-962 are shown in FIG. 4). Modified TDZD-8 analogues PNR-962 and BSK-179 are more anti-aggregative than TDZD-8, lowering total amyloid-staining intensity by a further 14% (data not shown).
Following previously described experimental procedures (Liu, et al. (2005). S100B-induced microglial and neuronal IL-1 expression is mediated by cell type-specific transcription factors. Journal of Neurochemistry. 92(3): 546-553), SH-SY5Y-APPSw neuronal cells expressing an aggregation-prone double mutant of amyloid precursor protein (APPSw) were cultured in DMEM plus 10% (v/v) fetal bovine serum (FBS) at 37° C. Cells were suspended in trypsin/EDTA and rinsed in PBS prior to re-plating or harvesting. […] Human neuroblastoma cells were treated with PNR962, either simultaneous with sAPPα or beginning 1 h prior to sAPPα addition (pre-treatment) in order to ascertain the protective benefits of PNR962 on protein aggregation in human neuroblastoma cell lines. A similar experimental procedure was followed to examine the effect of treatment with these analogs on non-neuronal human cells, exposing human embryonic kidney cells (HEK) that express tau-like aggregates (found in AD-associated diseases) to 0.001, 0.01, and 1-μM doses of TDZD-8 and its analogues.
To observe the protective effects of the novel TDZD analogs on protein aggregation in SY5Y-APPSw cells, using DMEM medium containing 10% fetal calf serum in […], cells were cultured at 37′C for 26 hrs allowing cells to approximately double in number. After 48 h of cell incubation in the presence of specified concentrations of drug or vehicle, cells were fixed 15 min in formaldehyde (4% v/v), washed, and stained 20 min at ˜22° C. in a dark container with 0.1% w/v Thioflavin T mixed with DAPI (1 μg/ml; Life Technologies, Grand Island, N.Y., USA). […] The intensity of aggregate/thioflavin-T fluorescence per field was quantified via an Image J plug-in developed in-house, and normalized to the number of DAPI^+ nuclei counted per field, to obtain an average intensity of aggregates per cell for each treatment.

O=c1sn(CCI)c(=O)n1Cc1ccccc1 [PNR-962]
tau hyperphosphorylation (tau hyperphosphorylation): suppression of tau hyperphosphorylation
number of Q40::YFP aggregates (C. elegans strain AM141; 5-μM, 3 days of exposure (FIG. 6)): reduces huntingtin-like aggregates; also recorded: reduced the number of aggregates significantly
number of aggregation foci (C. elegans strain AM141; C. elegans model of Huntington's Disease (FIG. 7)): decreases
aggregate intensity (content of Q40-YFP) (C. elegans strain AM141; not shown): reduced aggregate intensity
protein aggregation (SH-SY5Y-APPSw cells; 5 μM (FIG. 4)): reduces protein aggregation
further lowering of total amyloid-staining intensity relative to TDZD-8 (SH-SY5Y-APPSw cells; data not shown): 14%
